Data taken from patent US9321743B2, “Compositions and methods of inhibiting N-acylethanolamine-hydrolyzing acid amidase” (The Regents of the University of California, priority 2007, dated 2016).

Assays:
[1] = test system: carrageenan-induced inflammation; experiment: mouse carrageenan model (carrageenan-soaked polyethylene sponge implanted under the dorsal skin); format: in vivo
From the text: The contribution of endogenous PEA to inflammatory processes remains largely undefined. […] The inventors have previously shown that the proinflammatory phorbol ester, 12-O-tetradecanoylphorbol-13-acetate (TPA), decreases dermal PEA levels following skin inflammation. These findings raised the possibility that reduced PEA levels during inflammation may allow for the progression of the inflammatory process. To further explore this idea, the inventors evaluated the effects of carrageenan-induced inflammation on PEA levels in the mouse. Polyethylene sponges injected with vehicle (10% DMSO in saline) or carrageenan (1%) were surgically implanted under the dorsal skin of mice. After 3 days, the mice were sacrificed and the sponges were removed and analyzed for inflammatory cell infiltration and cellular PEA content. In carrageenan-treated animals the number of infiltrating cells (primarily neutrophils) increased by approximately 3-fold as can be taken from FIG. 2. Here, surgical implantation of vehicle (v) or carrageenan (c) soaked sponges under the dorsal skin of Swiss mice for 3 days (A) increased the number of infiltrating neutrophils and (B) decreased the levels of endogenous cellular PEA. (C) Time course of the effects of vehicle (open symbols) or carrageen (closed symbols) on PEA levels **P<0.01 or ***P<0.001 vs. V, t-test or ANOVA, followed by Dunnett's post-hoc as appropriate (n=6).
As a first step in determining the role of endogenous PEA in inflammation, the inventors examined the effects of local application of PEA on inflammatory responses. Polyethylene sponges injected with vehicle or carrageenan (1%) and either vehicle (10% DMSO in saline) or various doses of PEA (0.1-50 μg) were surgically implanted under the dorsal skin of mice. After 3 days, the mice were killed and the sponges were removed and analyzed for cell infiltration. […] Here panels (A-B) depict the effect of vehicle (open bars), carrageenan (filled bars) or PEA (0.1-50 μg) in Swiss mice, black bars; PEA (50 μg in PPAR-α−/− mice), scored as the number of infiltrating inflammatory cells into a polyethylene sponge (size) injected with vehicle, carrageenan (1%) or PEA, implanted under the dorsal skin of (A) Swiss mice or (B) wildtype C57BL6 mice (+/+) or PPAR-α/− mice for 3 days. **P<0.01 or ***P<0.001 vs. V, ## P<0.01 vs. carrageenan control. ANOVA, followed by Tukey's or Dunnett's post-hoc as appropriate (n=6). Thus, it should be appreciated that peripheral inflammation is associated with decreased PEA synthesis in infiltrating cells, and that restoring PEA levels by exogenous PEA administration reduces inflammatory responses.
Polyethylene sponges (1 cm^3) were injected with either vehicle (100 μl of water:DMSO (9:1), V, open bars), carrageenan (1%, filled bars), URB597 (30 μg), and URB783 (30 μg) as indicated. **P<0.01 or ***P<0.001 vs. V, ## P<0.01 vs. carrageenan control. ANOVA, followed by Tukey's or Dunnett's post-hoc as appropriate (n=5-7).

recombinant NAAA = recombinant NAAA (Rattus norvegicus (Rat), UniProt Q5KTC7); experiment: NAAA assay; format: biochemical; details: read-out: IC50 of NAAA inhibition
Method: Recombinant NAAA or native rat lung NAAA was incubated at 37° C. for 30 min in 0.2 ml of sodium hydrogen phosphate buffer (50 mM, pH 5.0) containing 0.1% Triton X-100, 3 mM dithiothreitol (DTT) and […] heptadecenoylethanolamide as substrate. The reaction was terminated by the addition of 0.2 ml cold methanol containing […] of heptadecanoic acid (HDA, NuChek Prep, Elysian, Minn.). Samples were analyzed by LC/MS (liquid chromatography/mass spectrometry). Heptadecanoic acid was eluted on an XDB Eclipse C18 column isocratically at 2.2 ml/min for 1 min with a solvent mixture of 95% methanol and 5% water, both containing 0.25% acetic acid and 5 mM ammonium acetate. The column temperature was 50° C. ESI was in the negative mode, capillary voltage was 4 kV, and fragmentor voltage was 100 V. N2 was used as drying gas at a flow rate of 13 liters/min and a temperature of 350° C. Nebulizer pressure was set at 60 psi. [M-H]-was monitored in SIM mode using heptadecanoic acid as internal standard. Calibration curves were generated using commercial heptadecenoic acid (Nu-Chek Prep, m/z=267).

spinal cord injury = spinal cord injury (SCI) model, extradural clip compression; format: in vivo, mouse; details: spinal cord tissue 24 hours after SCI, local administration after SCI
Method: In the spinal cord injury (SCI) model, extradural compression of a section of the spinal cord exposed via a four-level T5-T8 aminectomy, caused a substantial increase in iNOS expression in the inflammatory cells as well as in nuclei of […] in the white and gray matter of the spinal cord tissues collected from mice 24 hours after SCI. No iNOS staining was detected in the spinal cord obtained from sham mice. […] A typical experimental protocol is described below.
Mice were randomized into 4 groups (n=40 animals/group). Sham animals were subjected to the surgical procedure except that the aneurysm clip was not applied and treated locally at the spinal cord T5-T8 level with vehicle (saline) or 3 (30 μg/mouse) 1 h and 6 h after surgical procedure. […]
Immunohistochemical localization of PAR, nitrotyrosine, FAS-ligand, Bax, Bcl-2 and iNOS. Twenty-four hours after SCI, nitrotyrosine, a specific marker of nitrosative stress, was measured by immunohistochemical analysis in the spinal cord sections to determine the localization of “peroxynitrite formation” and/or other nitrogen derivatives produced during SCI. […] Specific labeling was detected with a biotin-conjugated goat anti-rabbit IgG and avidin-biotin peroxidase complex ([…]). […]

[2] = 30 μg in sponge, 3 days, Swiss mice

Chain of recombinant NAAA (Q5KTC7 34-362): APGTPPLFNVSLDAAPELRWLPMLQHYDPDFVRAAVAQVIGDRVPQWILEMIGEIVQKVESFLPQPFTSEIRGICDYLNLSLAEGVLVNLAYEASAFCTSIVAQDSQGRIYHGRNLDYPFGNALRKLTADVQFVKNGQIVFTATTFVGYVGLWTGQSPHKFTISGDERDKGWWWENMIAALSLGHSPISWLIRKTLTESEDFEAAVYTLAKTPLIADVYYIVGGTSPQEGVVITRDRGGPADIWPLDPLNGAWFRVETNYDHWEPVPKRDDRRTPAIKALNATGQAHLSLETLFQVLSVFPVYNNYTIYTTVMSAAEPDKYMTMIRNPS

NC(=O)c1cccc(-c2cccc(OC(=O)NC3CCCCC3)c2)c1 [URB597, reference compound]
anti-inflammatory effect ([1]; 30 μg in sponge, 3 days): no anti-inflammatory effect

CCCCCCCCCCCCCCCC(=O)NCCO [PEA, N-palmitoylethanolamine, reference compound]
number of infiltrating cells and edema in PPAR-α-null animals ([1]; PEA 50 μg, PPAR-α-null mice): had no effect | number of infiltrating cells ([1]; PEA 0.1-50 μg in sponge, 3 days, wild-type mice): dose-dependently reduced | edema ([1]; PEA in sponge, wild-type mice, data not shown): dose-dependently reduced

O=C(CCc1ccccc1)N[C@H]1COC1=O [URB783, (S)—N-(2-oxooxetan-3-yl)-3-phenylpropionamide]
IC50 (recombinant NAAA): 420 ± 20 nM | endogenous PEA levels [1, 2]: restored PEA to basal levels | number of infiltrating cells [1, 2]: significantly reduced | anti-inflammatory effects in PPAR-α null mice ([1]; PPAR-α null mice): absent | exudates volume ([1]; in sponge, data not shown): significantly reduced | expression of iNOS (spinal cord injury): significant reduction | other markers of inflammation and cell apoptosis (PAR, nitrotyrosine, Fas-ligand, Bax, Bcl-2, TUNEL) (spinal cord injury): significant reduction

O=C(N[C@H]1COC1=O)c1ccc(-c2ccccc2)cc1 [URB894, (S)—N-(2-oxooxetan-3-yl)biphenyl-4-carboxamide]
IC50 (recombinant NAAA): 115 ± 13 nM
